Measured values taken from ChEMBL document CHEMBL4229379, “Synthesis and structure-activity relationship of novel bisindole amidines active against MDR Gram-positive and Gram-negative bacteria” (Eur J Med Chem, 2018).
In brackets after ≈: the same amount, converted by molar mass.

How the values were obtained:
[1] = test system: Enterococcus faecium; assay: Antibacterial activity against vancomycin-sensitive Enterococcus faecium 12-3 after 18 hrs by CLSI broth microdilution method; format: functional; conditions: 12-3, 18 h
[2] = test system: Enterococcus faecalis; assay: Antibacterial activity against vancomycin-sensitive Enterococcus faecalis 12-5 after 18 hrs by CLSI broth microdilution method; format: functional; conditions: 12-5, 18 h
[3] = test system: Escherichia coli; assay: Antibacterial activity against extended-spectrum beta-lactamase deficient Escherichia coli ATCC 25922 after 18 hrs by CLSI broth microdilution method; format: functional; conditions: ATCC 25922, 18 h
[4] = test system: Enterococcus faecalis; assay: Antibacterial activity against vancomycin-resistant Enterococcus faecalis 09-9 after 18 hrs by CLSI broth microdilution method; format: functional; conditions: 09-9, 18 h
[5] = test system: Klebsiella pneumoniae; assay: Antibacterial activity against extended-spectrum beta-lactamase deficient Klebsiella pneumoniae 12-4 after 18 hrs by CLSI broth microdilution method; format: functional; conditions: 12-4, 18 h
[6] = Cytotoxicity against HEK293T cells assessed as reduction in cell viability after 48 hrs by MTS assay; format: cell-based, HEK-293T; conditions: human
[7] = test system: Klebsiella aerogenes; assay: Antibacterial activity against Enterobacter aerogenes ATCC 13048 after 18 hrs by CLSI broth microdilution method; format: functional; conditions: ATCC 13048, 18 h
[8] = test system: Serratia marcescens; assay: Antibacterial activity against Serratia marcescens ATCC 21074 after 18 hrs by CLSI broth microdilution method; format: functional; conditions: ATCC 21074, 18 h
[9] = test system: Escherichia coli; assay: Antibacterial activity against extended-spectrum beta-lactamase harboring Escherichia coli 12-15 after 18 hrs by CLSI broth microdilution method; format: functional; conditions: 12-15, 18 h
[10] = test system: Klebsiella pneumoniae; assay: Antibacterial activity against extended-spectrum beta-lactamase harboring Klebsiella pneumoniae ATCC 700603 after 18 hrs by CLSI broth microdilution method; format: functional; conditions: Klebsiella pneumoniae, 700603, 18 h
[11] = test system: Enterococcus faecium; assay: Antibacterial activity against vancomycin-resistant Enterococcus faecium 12-1 after 18 hrs by CLSI broth microdilution method; format: functional; conditions: 12-1, 18 h
[12] = test system: Staphylococcus aureus; assay: Antibacterial activity against methicillin-resistant Staphylococcus aureus 12-33 after 18 hrs by CLSI broth microdilution method; format: functional; conditions: 12-33, 18 h
[13] = test system: Pseudomonas aeruginosa; assay: Antibacterial activity against Pseudomonas aeruginosa ATCC 27853 after 18 hrs by CLSI broth microdilution method; format: functional; conditions: ATCC 27853, 18 h
[14] = test system: Citrobacter freundii; assay: Antibacterial activity against Citrobacter freundii ATCC 43864 after 18 hrs by CLSI broth microdilution method; format: functional; conditions: ATCC 43864, 18 h
[15] = test system: Staphylococcus epidermidis; assay: Antibacterial activity against methicillin-sensitive Staphylococcus epidermidis 12-6 after 18 hrs by CLSI broth microdilution method; format: functional; conditions: 12-6, 18 h
[16] = test system: Acinetobacter calcoaceticus; assay: Antibacterial activity against Acinetobacter calcoaceticus ATCC 19606 after 18 hrs by CLSI broth microdilution method; format: functional; conditions: ATCC 19606, 18 h
[17] = test system: Staphylococcus epidermidis; assay: Antibacterial activity against methicillin-sensitive Staphylococcus epidermidis ATCC 12228 after 18 hrs by CLSI broth microdilution method; format: functional; conditions: ATCC 12228, 18 h
[18] = test system: Escherichia coli; assay: Antibacterial activity against extended-spectrum beta-lactamase deficient Escherichia coli 1515 after 18 hrs by CLSI broth microdilution method; format: functional; conditions: Escherichia coli, 1515, 18 h
[19] = test system: Staphylococcus aureus; assay: Antibacterial activity against methicillin-sensitive Staphylococcus aureus ATCC 29213 after 18 hrs by CLSI broth microdilution method; format: functional; conditions: ATCC 29213, 18 h
[20] = test system: Staphylococcus epidermidis; assay: Antibacterial activity against methicillin-resistant Staphylococcus epidermidis 12-8 after 18 hrs by CLSI broth microdilution method; format: functional; conditions: 12-8, 18 h
[21] = test system: Stenotrophomonas maltophilia; assay: Antibacterial activity against Stenotrophomonas maltophilia ATCC 13636 after 18 hrs by CLSI broth microdilution method; format: functional; conditions: ATCC 13636, 18 h
[22] = test system: Staphylococcus aureus; assay: Antibacterial activity against methicillin-resistant Staphylococcus aureus ATCC 33591 after 18 hrs by CLSI broth microdilution method; format: functional; conditions: ATCC 33591, 18 h
[23] = test system: Klebsiella pneumoniae; assay: Antibacterial activity against new delhi metallo-beta-lactamase-1 harboring Klebsiella pneumoniae ATCC BAA-2146 after 18 hrs by CLSI broth microdilution method; format: functional; conditions: ATCC BAA-2146, 18 h
[24] = test system: Enterococcus faecalis; assay: Antibacterial activity against vancomycin-resistant Enterococcus faecalis ATCC 51299 after 18 hrs by CLSI broth microdilution method; format: functional; conditions: ATCC 51299, 18 h
[25] = test system: Providencia rettgeri; assay: Antibacterial activity against Providencia rettgeri ATCC 31052 after 18 hrs by CLSI broth microdilution method; format: functional; conditions: ATCC 31052, 18 h
[26] = test system: Pseudomonas aeruginosa; assay: Antibacterial activity against Pseudomonas aeruginosa PAO1 after 18 hrs by CLSI broth microdilution method; format: functional; conditions: PAO1, 18 h
[27] = test system: Enterobacter cloacae; assay: Antibacterial activity against Enterobacter cloacae ATCC 43560 after 18 hrs by CLSI broth microdilution method; format: functional; conditions: ATCC 43560, 18 h
[28] = test system: Staphylococcus aureus; assay: Antibacterial activity against methicillin-sensitive Staphylococcus aureus 12-28 after 18 hrs by CLSI broth microdilution method; format: functional; conditions: 12-28, 18 h
[29] = test system: Pseudomonas aeruginosa; assay: Antibacterial activity against Pseudomonas aeruginosa 12-16 after 18 hrs by CLSI broth microdilution method; format: functional; conditions: 12-16, 18 h
[30] = test system: Enterococcus faecalis; assay: Antibacterial activity against vancomycin-sensitive Enterococcus faecalis ATCC 29212 after 18 hrs by CLSI broth microdilution method; format: functional; conditions: ATCC 29212, 18 h
[31] = test system: Klebsiella pneumoniae; assay: Antibacterial activity against extended-spectrum beta-lactamase harboring Klebsiella pneumoniae 12-8 after 18 hrs by CLSI broth microdilution method; format: functional; conditions: 12-8, 18 h
[32] = test system: Proteus vulgaris; assay: Antibacterial activity against Proteus vulgaris ATCC 29905 after 18 hrs by CLSI broth microdilution method; format: functional; conditions: ATCC 29905, 18 h
[33] = test system: Staphylococcus aureus; assay: Antibacterial activity against methicillin-sensitive Staphylococcus aureus 15 after 18 hrs by CLSI broth microdilution method; format: functional; conditions: Staphylococcus aureus, 15, 18 h
[34] = test system: Proteus mirabilis; assay: Antibacterial activity against Proteus mirabilis 12-6 after 18 hrs by CLSI broth microdilution method; format: functional; conditions: 12-6, 18 h
[35] = test system: Escherichia coli; assay: Antibacterial activity against extended-spectrum beta-lactamase deficient Escherichia coli 12-14 after 18 hrs by CLSI broth microdilution method; format: functional; conditions: 12-14, 18 h
[36] = test system: Klebsiella pneumoniae; assay: Antibacterial activity against extended-spectrum beta-lactamase deficient Klebsiella pneumoniae 7 after 18 hrs by CLSI broth microdilution method; format: functional; conditions: Klebsiella pneumoniae, 7, 18 h
[37] = test system: Enterococcus faecium; assay: Antibacterial activity against vancomycin-resistant Enterococcus faecium ATCC 700221 after 18 hrs by CLSI broth microdilution method; format: functional; conditions: ATCC 700221, 18 h

Compound	MIC [1]	MIC [2]	MIC [3]	MIC [4]	MIC [5]	CC50 at 48 h [6]	MIC [7]	MIC [8]	MIC [9]	MIC [10]	MIC [11]	MIC [12]	MIC [13]	MIC [14]	MIC [15]	MIC [16]	MIC [17]	MIC [18]	MIC [19]	MIC [20]	other results
N=C(c1ccc2cc(-c3ccc(-c4cc5ccc(C(=N)N6CC=CCC6)cc5[nH]4)cc3)[nH]c2c1)N1CC=CCC1	4 mg/L (≈ 7.62 µM)	8 mg/L (≈ 15.2 µM)	8 mg/L (≈ 15.2 µM)	4 mg/L (≈ 7.62 µM)	16 mg/L (≈ 30.5 µM)	13.3 mg/L (≈ 25.4 µM)	8 mg/L (≈ 15.2 µM)	64 mg/L (≈ 122 µM)	8 mg/L (≈ 15.2 µM)	32 mg/L (≈ 61 µM)	4 mg/L (≈ 7.62 µM)	2 mg/L (≈ 3.81 µM)	> 128 mg/L	8 mg/L (≈ 15.2 µM)	4 mg/L (≈ 7.62 µM)	16 mg/L (≈ 30.5 µM)	1 mg/L (≈ 1.91 µM)	8 mg/L (≈ 15.2 µM)	2 mg/L (≈ 3.81 µM)	2 mg/L (≈ 3.81 µM)	MIC [21]: 16 mg/L (≈ 30.5 µM); MIC [22]: 1 mg/L (≈ 1.91 µM); MIC [23]: 8 mg/L (≈ 15.2 µM); MIC [24]: 8 mg/L (≈ 15.2 µM); MIC [25]: 8 mg/L (≈ 15.2 µM); MIC [26]: > 128 mg/L; MIC [27]: 8 mg/L (≈ 15.2 µM); MIC [28]: 2 mg/L (≈ 3.81 µM); MIC [29]: > 128 mg/L; MIC [30]: 4 mg/L (≈ 7.62 µM); MIC [31]: 16 mg/L (≈ 30.5 µM); MIC [32]: 16 mg/L (≈ 30.5 µM); MIC [33]: 2 mg/L (≈ 3.81 µM); MIC [34]: 32 mg/L (≈ 61 µM); MIC [35]: 8 mg/L (≈ 15.2 µM); MIC [36]: 16 mg/L (≈ 30.5 µM); MIC [37]: 4 mg/L (≈ 7.62 µM)
CN(C)C(=N)c1ccc2cc(-c3ccc4cc(-c5cc6ccc(C(=N)N(C)C)cc6[nH]5)ccc4c3)[nH]c2c1	16 mg/L (≈ 32.1 µM)	32 mg/L (≈ 64.2 µM)	32 mg/L (≈ 64.2 µM)	4 mg/L (≈ 8.02 µM)	> 128 mg/L	6.2 mg/L (≈ 12.4 µM)	> 128 mg/L	> 128 mg/L	64 mg/L (≈ 128 µM)	> 128 mg/L	32 mg/L (≈ 64.2 µM)	2 mg/L (≈ 4.01 µM)	> 128 mg/L	32 mg/L (≈ 64.2 µM)	32 mg/L (≈ 64.2 µM)	128 mg/L (≈ 257 µM)	2 mg/L (≈ 4.01 µM)	32 mg/L (≈ 64.2 µM)	2 mg/L (≈ 4.01 µM)	1 mg/L (≈ 2.01 µM)	MIC [21]: 32 mg/L (≈ 64.2 µM); MIC [22]: 2 mg/L (≈ 4.01 µM); MIC [23]: > 128 mg/L; MIC [24]: 32 mg/L (≈ 64.2 µM); MIC [25]: 128 mg/L (≈ 257 µM); MIC [26]: > 128 mg/L; MIC [27]: 64 mg/L (≈ 128 µM); MIC [28]: 2 mg/L (≈ 4.01 µM); MIC [29]: > 128 mg/L; MIC [30]: 32 mg/L (≈ 64.2 µM); MIC [31]: 128 mg/L (≈ 257 µM); MIC [32]: 64 mg/L (≈ 128 µM); MIC [33]: 2 mg/L (≈ 4.01 µM); MIC [34]: > 128 mg/L; MIC [35]: 32 mg/L (≈ 64.2 µM); MIC [36]: > 128 mg/L; MIC [37]: 32 mg/L (≈ 64.2 µM)
